Where two headings read alike, the source gives them in different places.
Tests used:
[1] = test system: endogenous AMPK from HEK-293 cells; test: Protection of immunoprecipitated AMPK against inactivation by PP2Cα (PPM1A); format: biochemical, human; conditions: immunoprecipitated AMPK, 10 min 30 °C; read-out: half-maximal effect on protection against inactivation by PPM1A
Experimental: AMPK was immunoprecipitated from HEK-293 cell lysate (2.5 mg of lysate protein) using a mixture of anti-α1 and -α2 antibodies. After extensive washing as in Section 4.5, aliquots equivalent to 80 µg of lysate protein were incubated in a shaking incubator at 30 °C for 10 min in Hepes buffer (50 mM Na Hepes, pH 7.4, 150 mM NaCl, 1 mM dithiothreitol, 0.02% (w/v) Brij-35) with 50 mM MgCl2 and sufficient PPM1A to yield about 80% inactivation, in the presence or absence of 200 µM AMP or the indicated concentration of BAY-3827 or SBI-0206965 (total volume 50 µL). The reaction was terminated by adding 1 mL of IP buffer (50 mM Tris/HCl, pH 7.4 at room temperature, 150 mM NaCl, 1 mM EDTA, 1 mM EGTA, 5 mM Na pyrophosphate, 50 mM NaF, 1 mM dithiothreitol, 0.1% (v/v) Triton X-100) and, after additional washing in the same buffer and a final wash into Hepes buffer, AMPK activity was determined using kinase assays as above.

[2] = molecular target: T1, isolated kinase domain of the human α2 isoform (residues 1–310) (Homo sapiens, UniProt P54646); test: Cell-free kinase assay of isolated α2 kinase domain phosphorylated on Thr172 by CaMKK2; format: biochemical; conditions: for IC50: ATP 200 µM, read-out: IC50, inhibition of human α2 kinase domain
T1 construct: human GST-tagged α2 kinase domain (1–310) was produced as described; GST; made in house
T1 sequence (P54646 1-310): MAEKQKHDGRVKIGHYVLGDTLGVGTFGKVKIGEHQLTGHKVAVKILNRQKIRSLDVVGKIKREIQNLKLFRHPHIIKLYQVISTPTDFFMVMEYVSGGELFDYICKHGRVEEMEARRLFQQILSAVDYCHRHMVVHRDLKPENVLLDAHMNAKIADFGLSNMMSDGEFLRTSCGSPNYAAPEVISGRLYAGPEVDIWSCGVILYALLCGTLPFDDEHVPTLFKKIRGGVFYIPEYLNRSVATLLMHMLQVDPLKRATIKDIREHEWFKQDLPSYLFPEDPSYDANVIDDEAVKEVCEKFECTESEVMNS
Description: AMPK assays measured the transfer of radioactivity from labelled ATP to a peptide substrate, which was separated from unreacted ATP by binding to P81 paper. This assay was described previously, except that we used [γ-^33P]ATP rather than [γ-^32P]ATP. The peptide substrate was the AMARA peptide in all experiments other than one, which analyzed allosteric activation by AMP (Figure 2A), when, for technical reasons, the SAMS peptide was used instead. With purified preparations of AMPK, it was assayed in solution, but for assays in cell lysates (Figure 3D and Figure 4D), it was first immunoprecipitated using a mixture of anti-α1 and -α2 antibodies and assayed in resuspended immunoprecipitates. After the initial immunoprecipitation of lysate containing 80 µg of protein, the pellets were washed twice with 1 mL of high salt IP buffer (50 mM Tris-HCL, pH 7.4 at 4 °C, 1 M NaCl, 1 mM EDTA, 1 mM EGTA, 50 mM NaF, 5 mM Na pyrophosphate, 1 mM dithiothreitol, 0.1% (v/v) Triton X-100) and twice with 1 mL of low salt IP buffer (as above but only 150 mM NaCl), followed by a final wash in 1 mL of assay buffer (50 mM Na Hepes, pH7.4, 150 mM NaCl, 1 mM dithiothreitol, 0.02% (v/v) Brij-35). After each wash, the pellet was recovered via centrifugation (16,000× g, 3 min) and then resuspended. The final resuspended pellets from each biological replicate were divided into two aliquots (40 µg lysate protein) to provide technical replicates and assayed as above.
Bacterially expressed heterotrimers and kinase domain constructs (Figure 1B–D) were activated through Thr172 phosphorylation using ATP and GST-tagged CaMKK2, and CaMKK2 was removed via passage through glutathione-Sepharose, as described previously.

[3] = test system: GBF1 (Thr1337) phosphorylation in U2OS cells; test: GBF1 phosphorylation in U2OS cells (Western blot); format: cell-based, human; conditions: 30 min inhibitor then 30 min MK-8722 (300 nM), read-out: IC50, inhibition of MK-8722-stimulated GBF1 phosphorylation
Experimental: (§1) T-Rex U2OS cells carrying a Flp Recombinase Target (FRT) site were generated as described previously and grown in Dulbecco’s Modified Eagle’s Medium (DMEM) supplemented with 10% (v/v) FBS and 1% (v/v) penicillin/streptomycin.
(§2) Cells were lysed rapidly in situ on culture plates using ice-cold lysis medium containing phosphatase inhibitors, as described previously.
(§3) SDS-PAGE was performed using precast NuPAGE Tris-acetate 3–8% gradient polyacrylamide gels in Tris-acetate running buffer when analyzing ACC, GBF1, or Raptor, or NuPAGE Bis-Tris 4–12% gradient polyacrylamide gels in the MOPS buffer system (ThermoFisher Scientific, Waltham, MA, USA) for other proteins (unless stated otherwise). Proteins were transferred to nitrocellulose membranes using the iBlot 2 system (ThermoFisher Scientific). Membranes were enhanced if necessary using SuperSignal Western Blot Enhancer (ThermoFisher Scientific), then blocked for 1 h in Li-Cor Odyssey blocking buffer. The membranes were probed with the appropriate primary antibody ([…]) overnight at 4 °C. Detection was performed using secondary antibody or streptavidin probe (for total ACC) coupled to IR 680 or IR 800 dye, and the membranes were scanned using the LICOR Odyssey IR imager. Protein concentrations were determined by Coomassie Blue binding with bovine serum albumin as a standard. The cellular levels of AMP and ATP were determined via direct perchloric acid extraction from cells, with LC:MS used to estimate the levels of each nucleotide.

[4] = test system: phosphorylation of Thr172 on AMPK-α in U2OS cells; test: AMPK Thr172 phosphorylation in U2OS cells (Western blot); format: cell-based, human
Experimental: as §1, §2, §3

[5] = test system: endogenous AMPK from HEK-293 cells; test: Activation of dephosphorylated immunoprecipitated AMPK by the LKB1 complex; format: biochemical, human; conditions: increasing concentrations; SBI-0206965 effect reversed above 1 µM
Experimental: AMPK was immunoprecipitated from HEK-293 cell lysate (2.5 mg protein) using a mixture of anti-α1 and -α2 antibodies. After extensive washing, it was incubated in a shaking incubator at 30 °C for 20 min in Hepes buffer with 50 mM MgCl2 and sufficient PPM1A to yield about 90% inactivation (total volume of 250 µL). The reaction was terminated by adding 1 mL of IP buffer and, after additional washing in the same buffer, aliquots equivalent to 80 µg of lysate protein were incubated in a shaking incubator at 30 °C for 10 min in Hepes buffer with […] and 5 mM MgCl2, with or without a limiting amount of LKB1:STRADα:MO25α complex (0.5 µg) in the presence or absence of 200 µM AMP or the indicated concentration of BAY-3827 or SBI-0206965 (total volume of 50 µL). The reaction was terminated by adding 1 mL of IP buffer and, after additional washing in the same buffer and a final wash into Hepes buffer, AMPK activity was determined using kinase assays as above.

U2OS cells = test: Cellular AMP:ATP ratio via LC:MS in U2OS cells; format: cell-based, human
Experimental: as §1, §3

[6] = test system: Raptor (Ser792) phosphorylation in U2OS cells; test: Raptor phosphorylation in U2OS cells (Western blot); format: cell-based, human; conditions: 30 min inhibitor then 30 min MK-8722 (300 nM), read-out: IC50, inhibition of MK-8722-stimulated Raptor phosphorylation
Experimental: as §1, §2, §3

Structure (SMILES) | EC50 [1] [nM] | IC50 [2] [nM] | Apparent Vmax ([2]; BAY-3827 10 nM) [µmol/min/mg] | Apparent Vmax ([2]; BAY-3827 30 nM) [µmol/min/mg] | Apparent Vmax ([2]; BAY-3827 100 nM) [µmol/min/mg] | Apparent Vmax ([2]; BAY-3827 300 nM) [µmol/min/mg] | IC50 ([3]; Homo sapiens, 0.5 h) [nM] | EC50 ([4]; Homo sapiens, read-out: EC50, half-maximal increase of Thr172 phosphorylation) [nM] | maximum increase of Thr172 phosphorylation ([4]; pThr172:total AMPK relative to control) [fold] | effect on activation of AMPK by LKB1 [5] | effect on cellular AMP:ATP ratios (U2OS cells; all concentrations used) | IC50 ([6]; Homo sapiens, 0.5 h) [nM] | IC50 [3] [nM] | increase of Thr172 phosphorylation, maximal effect at low concentrations ([4]; 3–30 µM) | increase of Thr172 phosphorylation at high concentrations ([4]; 100–300 µM, not saturated) [fold] | increase in cellular AMP:ATP ratio (U2OS cells; 300 µM, 1 h incubation) [fold] | IC50 [6] [nM]
CCc1ccccc1C(=O)Nc1n[nH]c2c(C)c(F)c(C3C(C#N)=C(C)N(C)C(C)=C3C#N)cc12 [BAY-3827] | 7 | 89 | 2.09 | 1.78 | 1.69 | 1.27 | 55 | 164 | 9.7 | little or no effect | did not cause any change | 113 |  |  |  |  | 
CNC(=O)c1ccccc1Oc1nc(Nc2cc(OC)c(OC)c(OC)c2)ncc1Br [SBI-0206965] | 290 | 545 |  |  |  |  |  |  |  | progressively promoted activation by LKB1 |  |  | 12000 | about 2 fold | 4 | > 30 | 9200
